Read-outs that look alike come from different tables or passages of the source.
Experiments:
adjuvant arthritis (AA) = conditions: Lewis rats
[1] = tested on: experimental autoimmune encephalomyelitis (EAE); conditions: DA rats; 40 mg IV on day of immunization; vs untreated control; FIG. 2
[2] = type: in vivo
Protocol: The mice were scored according to following chart: 0—normal behavior; 1—slight toxic signs (piloerection); 2—moderate toxic signs (partial eye lid closure, hunched posture, hypoactivity, apathy); 3—severe toxic signs (ataxia, convulsions, gasping respiration, paralysis, unconscious); 4—death. Mice were weighed before immunization and on the day of the termination of the study. […] The spleens were weighed and spleen/body weight ratio was calculated.

EAE [3] = type: in vivo; conditions: CSJL/F1 mice, GA 5.0 mg/mouse, Compound 3 0.5 mg/mouse
Protocol: (§1) EAE was tested in CSJL/F1 mice, immunological response was tested in C57BL/J6 mice. Healthy, specific pathogen-free, female CSJLF/1 and male C57BL/J6 mice, were obtained from Harlan Animal Breeding Center, Jerusalem, Israel. The mice were 9-week old at the initiation of the study, weighing 20 g±15%.
(i) The mice were divided into 4 test groups as shown below:
For immunization of group 1, a GA solution in PBS (100 mg/mL) was diluted 1:2 in IFA to yield a final concentration of 50 mg/mL for injection of 5.0 mg/mouse GA (0.1 ml). The GA+IFA mixtures were transferred into a syringe (2.5 mL) connected to a second syringe through a Luer lock bridge and mixed well by transferring the material from one syringe to another for about 10 minutes until the material was well emulsified.
EAE was induced by injecting the encephalitogenic agent consisting of MSCH and commercial CFA containing Mycobacterium tuberculosis H37Ra to the foot-pads of the animals and pertussis toxin IV.
They were weighed before immunization and once a week thereafter until the termination of the study. Ten days after induction of EAE, the mice were examined for EAE clinical signs and scored. The EAE clinical signs were observed and scored from the 9th day post-EAE induction until the termination of the experiment according to the following five-graded scale to assess clinical severity: 0, normal behavior; 1, weight loss; 2, tail weakness; 3, hind legs hypotonia and weakness; 4, hind legs paralysis; 4, severe total paralysis; 5, impaired respiration and/or convulsions and/or full paralysis or death.
Calculation of mortality: The number of sick and dead animals in each group was determined, and the incidence of disease and mortality rate was calculated as follows: […]
Calculation of percent activity: The percentage activity according to mortality was calculated as follows: […]
Calculation of mean duration of disease and onset of disease: The mean duration of the disease and onset of disease expressed in days was calculated.
Calculation of the mean maximal score and percent inhibition: The maximal scores of each of the 10 mice in the test group were summed.
The mean maximal score (MMS) of the group was calculated as follows: […]
The percent inhibition was calculated as follows: […]
Calculation of the mean group score and percent inhibition: The scores of each of the 10 mice in the test group was summed.
The mean group score (GMS) of the group was calculated as follows: […]

[4] = tested on: Spleen Cells of GA Immumized Mice; experiment: IL-2 secretion from spleen cells of immunized mice (ELISA); type: cell-based, C57BL/J6 mice; parameters: IL-2 Secretion from 5 × 10^6 Spleen Cells: unit not given here
Protocol: as §1
(i) The mice were divided into 6 test groups as shown below:
Mice were immunized 10 days prior to spleen collection.
A solution of GA in PBS (final GA concentration of 1.5 mg/mL, for dose of 75 μg/mouse) was diluted in CFA to yield a final concentration of 0.75 mg/mL for dose of 75 μg/mouse GA. The mixtures (GA+CFA) were transferred into a syringe (2.5 mL) connected to a second syringe through a Luer lock bridge and mixed well by transferring the material from one syringe to another for about 10 minutes until the material is well emulsified.
GA (20 mg vial) was dissolved in PBS to yield 20 mg/mL solution, then further diluted in PBS to yield a final GA concentration of 1.5 mg/mL for dose of 75 μg/mouse. Equal volumes of Compound 3 and GA or PBS for control group were mixed.
Spleens were collected and pooled for each group in sterile RPMI medium. Cells were extracted resuspended in enriched DCCM1 medium and counted. […] Supernatants were collected and tested for levels of cytokines secretion.
(vii) Detection of cytokine secretion in primary cultures from spleens was performed employing ELISA. Cells were activated in-vitro and IL-2 secretion levels were detected using commercial kits according to the provider's instructions.

[5] = tested on: delayed-type hypersensitivity (DTH) reaction; experiment: Oxazolone-induced DTH skin reaction, mouse ear-swelling test; type: in vivo, BALB/c mice; conditions: for percent inhibition of DTH reaction: read after 24 hours; for reduction of inflammation in the DTH model: 0.5, 1, 2 and 4 mg in 40 μl 30 min after challenge, dexamethazone 2 mg/40 μl, FIG. 5
Protocol: Delayed-type hypersensitivity (DTH), a localized inflammatory reaction induced by cytokines secreted by certain TH cells when they encounter certain types of antigens, is an established experimental model for skin inflammation.
As a first step, DTH reactions were induced in the skin of 8-week-old female BALB/c mice. The mice were sensitized by topical application of 200 μl of a 2% oxazolone (4-ethoxymethylene-2-phenyl-2-oxazolin-5-one; Sigma, St. Louis, Mo.) solution in acetone/olive oil (4:1, vol/vol) to the shaved abdomen of the mice. Six days after sensitization, one ear of each mouse was challenged by topical application of 20 μl of a 0.5% oxazolone solution.
Mice were induced with DTH as in Example 17. […] In addition, a positive control of dexamethazone (2 mg/40 μl) was administered. A group of DTH induced mice was also treated with (4-Methyl-piperazin-1-yl)-acetic acid ethyl ester HCl (negative control.)

EAE [6] = conditions: Lewis rats
Protocol: EAE is induced in 7-9 weeks old female Lewis rats by injecting each foot pad with 25 μg of guinea MBP (50 μg total) in CFA (Sigma). The disease develops about 12 days after immunization and is characterized by paralysis of various degrees due to inflammation of the central nervous system. The rats are scored for paralysis on a scale of 0-4, as described above in Example 13.
EAE was induced in 8-week-old female Lewis rats as described in Example 15 above with guinea pig MBP in CFA.
(§2) The rats were scored for EAE on a severity scale of 0-4 as described above.
as §2
Rats were treated with Compound 9 (100 mg/Kg) per os. The rats were scored for EAE on a severity scale of 0-4 as described above.

[7] = 0.2 mg per os every day from EAE induction
[8] = 1 mg per os every day from EAE induction
[9] = 2 mg per os every day from EAE induction
[10] = 10 mg per os every day from EAE induction
[11] = 20 mg per os every day from EAE induction

In the case of CCCCCCCC/C=C\CCCCCCCCOC(=O)CN(C)C [Compound 1, N,N-Dimethylamino-acetic acid octadec-(Z)-9-enyl ester], the “protection against the inflammation caused by AA (AA score 0-16)” value (adjuvant arthritis (AA); 40 mg IV on day 0 or on day 14 after onset of AA, FIG. 1) is reported as “could protect the rats against the inflammation caused by AA” and the “prevention of paralysis (EAE score 0-4)” value [1] is reported as “could prevent the paralysis to a significant degree”.
In the case of CCCCCCCC/C=C\CCCCCCCCOC(=O)CN1CCN(C)CC1.O=C(O)C(O)C(O)C(=O)O [Compound 3, (4-Methyl-piperazin-1-yl)-acetic acid octadec-(Z)-9-enyl ester tartrate], the “protection against AA” value (adjuvant arthritis (AA); 10, 50, 100 or 200 mg SC at day -7 before induction, FIG. 6) is reported as “could protect the rats against AA”, the “effect on mice weight” value ([2]; Compound 3 50 and 500 μg/mouse, with or without GA 75 μg/mouse) is reported as “no adverse effect” and the signs of immunosuppression ([2]; Compound 3 with or without GA) is reported as “no signs of immunosuppression”. The “GMS (group mean score) Value ± S.D.” value (EAE [3]) was 3.3 ± 0.6, the “MMS (mean maximal score) Value ± S.D.” value (EAE [3]) was 4.7 ± 0.5 and the “Mean Duration” value (EAE [3]) was 4.7 ± 0.5 days. For the same compound, the “Mean onset” value (EAE [3]; SC immunization 11 days before EAE induction) was 10.3 ± 0.5 days, the “GMS inhibition (inh.* 3)” value (EAE [3]; vs PBS control) was 3.2% and the “MMS inhibition (inh.* 2)” value (EAE [3]; vs PBS control) was “.0%”. For the same compound, the “effect on non-specific Con-A activation (IL-2)” value ([4]; Con A as non-specific activator) was “no effect”, the “IL-2 Secretion from 5 × 10^6 Spleen Cells” value ([4]; GA activator conc. 2.5 (mg/mL), Comp. 3 50 μg/m (GA 75 μg/m where combined)) was “UQL” and the “IL-2 Secretion from 5 × 10^6 Spleen Cells” value ([4]; GA activator conc. 2.5 (mg/mL), Comp. 3 500 μg/m (GA 75 μg/m where combined)) was “UQL”. The “IL-2 Secretion from 5 × 10^6 Spleen Cells” value ([4]; GA activator conc. 25.0 (mg/mL), Comp. 3 50 μg/m (GA 75 μg/m where combined)) was “UQL”, the “IL-2 Secretion from 5 × 10^6 Spleen Cells” value ([4]; GA activator conc. 25.0 (mg/mL), Comp. 3 500 μg/m (GA 75 μg/m where combined)) was 7.9 and the “IL-2 Secretion from 5 × 10^6 Spleen Cells” value ([4]; activator Con A 2.5 (mg/mL), Comp. 3 50 μg/m (GA 75 μg/m where combined)) was 426.8. For the same compound, the “IL-2 Secretion from 5 × 10^6 Spleen Cells” value ([4]; activator Con A 2.5 (mg/mL), Comp. 3 500 μg/m (GA 75 μg/m where combined)) was 426.8, the “IL-2 Secretion from 5 × 10^6 Spleen Cells” value ([4]; activator conc. 0, Comp. 3 50 μg/m (GA 75 μg/m where combined)) was “UQL” and the “IL-2 Secretion from 5 × 10^6 Spleen Cells” value ([4]; activator conc. 0, Comp. 3 500 μg/m (GA 75 μg/m where combined)) was “UQL”. For the same compound, the “IL-2 secretion from spleen cells in response to GA” value ([4]; immunized with Compound 3 without GA, 50 and 500 μg/mouse) was “not elevated”, the “percent inhibition of DTH reaction” value ([5]; 1 mg topical on challenged ear 30 min after challenge) was 12.5% and the “percent inhibition of DTH reaction” value ([5]; 2 mg topical on challenged ear 30 min after challenge) was 8%. For the same compound, the “% inhibition” value (EAE [6]; [7]) was 28%, the “Mean Clinic Score” value (EAE [6]; [7]) was 2.1 and the “% inhibition” value (EAE [6]; [8]) was 28%. For the same compound, the “Mean Clinic Score” value (EAE [6]; [8]) was 2.1, the “% inhibition” value (EAE [6]; [9]) was 14% and the “Mean Clinic Score” value (EAE [6]; [9]) was 2.5. The “% inhibition” value (EAE [6]; [10]) was 28%, the “Mean Clinic Score” value (EAE [6]; [10]) was 2.1 and the “% inhibition” value (EAE [6]; [11]) was 41%. The “Mean Clinic Score” value (EAE [6]; [11]) was 1.7, the “protection against EAE” value (EAE [6]; administered subcutaneously (10-200 mg, day 7 before induction) or orally) was “could protect the rats against EAE” and the “effect on EAE” value (EAE [6]; per os every other day from day of EAE induction (not shown)) was “similarly effective”.
With CCCCCCCC/C=C\CCCCCCCCOC(=O)c1ccc(CN(C)C)cc1.Cl [Compound 5, 4-dimethylaminomethyl-benzoic acid octadec-(Z)-9-enyl ester HCl] the “reduction of inflammation in the DTH model” value (shortened to “reduction of inflammation”) [5] was “inhibit DTH Skin Reaction”.
In the case of CCCCCCCC/C=C\CCCCCCCCOC(=O)CN1CCNCC1.O=C(O)C(O)C(O)C(=O)O [Compound 9, Piperazin-1-yl-acetic acid octadec-(Z)-9-enyl ester bitartrate], the “reduction of inflammation” value [5] is reported as “inhibit DTH Skin Reaction”, the “protection against EAE” value (EAE [6]; 100 mg/Kg administered orally, FIG. 9) is reported as “could protect the rats against EAE” and the “% Sick rats” value (EAE [6]; 100 Mg/Kg per os) is reported as 100%. For the same compound, the “% inhibition” value (EAE [6]; 100 Mg/Kg per os) was 31.4%, the “Mean Clinic Score” value (EAE [6]; 100 Mg/Kg per os) was 1.93 ± 0.45 and the Mean onset (EAE [6]; 100 Mg/Kg per os) was 11.5.
With CCCCCCCC/C=C\CCCCCCCCOC(=O)C(N)c1ccccc1.Cl (stereo not drawn) [Compound 11, α-Amino-α-phenyl-acetic acid octadec-(Z)-9-enyl ester HCl salt] the “reduction of inflammation” value [5] was “inhibit DTH Skin Reaction”.
In the case of C[C@@H]1C[C@H]2[C@@H]3CCC4=CC(=O)C=C[C@]4(C)[C@@]3(F)[C@@H](O)C[C@]2(C)[C@@]1(O)C(=O)CO [dexamethazone, reference compound], the “reduction of inflammation” value [5] is reported as “positive results in reducing inflammation”.
With CCOC(=O)CN1CCN(C)CC1.Cl [negative control, (4-Methyl-piperazin-1-yl)-acetic acid ethyl ester HCl, reference compound] the “reduction of inflammation” value [5] was “did not show any positive results”.
With “glatiramer acetate [GA, reference compound]” the “IL-2 Secretion from 5 × 10^6 Spleen Cells” value ([4]; GA activator conc. 2.5 (mg/mL), mice immunized with GA 75 μg/m, no Comp. 3) was 47.9, the “IL-2 Secretion from 5 × 10^6 Spleen Cells” value ([4]; GA activator conc. 25.0 (mg/mL), mice immunized with GA 75 μg/m, no Comp. 3) was 124.3 and the “IL-2 Secretion from 5 × 10^6 Spleen Cells” value ([4]; activator Con A 2.5 (mg/mL), mice immunized with GA 75 μg/m, no Comp. 3) was 419.6. The “IL-2 Secretion from 5 × 10^6 Spleen Cells” value ([4]; activator conc. 0, mice immunized with GA 75 μg/m, no Comp. 3) was “UQL”.
